Patent US6936585B2, “Corticotropin releasing factor 2 receptor agonists” (priority 2002, dated 2005)
Ends that are not written are not given here. Peptide text beside a SMILES is read from it.

Tests used:
[1] = target: T1, CRF1R (Homo sapiens, UniProt P34998); test: CRF1R agonist activation (EC50 / Emax), called comparative CRF binding; type: cell-based; details: for Emax: read-out: CRF1R Emax; for EC50: read-out: CRF1R EC50
T1 sequence (P34998 24-415): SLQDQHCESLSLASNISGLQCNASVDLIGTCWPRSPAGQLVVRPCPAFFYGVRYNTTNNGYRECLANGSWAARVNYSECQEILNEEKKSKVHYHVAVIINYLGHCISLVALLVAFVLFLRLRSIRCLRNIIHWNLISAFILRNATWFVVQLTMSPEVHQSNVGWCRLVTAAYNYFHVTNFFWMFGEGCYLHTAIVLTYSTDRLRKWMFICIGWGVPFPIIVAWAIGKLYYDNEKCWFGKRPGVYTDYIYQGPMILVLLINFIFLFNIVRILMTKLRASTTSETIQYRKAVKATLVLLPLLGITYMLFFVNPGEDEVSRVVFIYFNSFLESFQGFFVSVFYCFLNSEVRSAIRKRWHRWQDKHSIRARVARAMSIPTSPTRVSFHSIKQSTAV
Procedure, shortened: (§1)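 Cells expressing full-length human CRF1R or CRF2R were exposed to peptide or vehicle control, and receptor activation was gauged as cAMP induction. cAMP was measured in cell lysates or via a cAMP-responsive element driving a reporter gene such as luciferase, CAT, GFP or alkaline phosphatase.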

[2] = target: T2, CRF2R (Homo sapiens, UniProt Q13324); test: CRF2R agonist activation (EC50 / Emax), called comparative CRF binding; type: cell-based; details: for Emax: read-out: CRF2R Emax; for EC50: read-out: CRF2R EC50
T2 sequence (Q13324 1-411): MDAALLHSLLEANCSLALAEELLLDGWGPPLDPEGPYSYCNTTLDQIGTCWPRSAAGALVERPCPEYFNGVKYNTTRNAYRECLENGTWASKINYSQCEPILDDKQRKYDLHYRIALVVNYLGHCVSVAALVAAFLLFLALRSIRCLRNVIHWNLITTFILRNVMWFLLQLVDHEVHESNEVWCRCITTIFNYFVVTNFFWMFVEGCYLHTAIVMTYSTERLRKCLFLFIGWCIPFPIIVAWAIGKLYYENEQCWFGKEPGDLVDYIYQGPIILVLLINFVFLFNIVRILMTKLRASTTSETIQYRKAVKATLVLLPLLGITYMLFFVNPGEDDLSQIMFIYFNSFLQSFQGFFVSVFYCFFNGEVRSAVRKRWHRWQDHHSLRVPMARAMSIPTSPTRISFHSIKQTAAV
Procedure, shortened: as §1

Compound | Emax [1] [%] | Emax [2] [%] | EC50 [1] [nM] | EC50 [2] [nM]
CC[C@H](C)[C@H](N)C(=O)N[C@H](C(=O)N[C@@H](CC(C)C)C(=O)N[C@@H](CO)C(=O)N[C@@H](CC(C)C)C(=O)N[C@@H](CC(=O)O)C(=O)N[C@H](C(=O)N1CCC[C@H]1C(=O)N[C@H](C(=O)NCC(=O)N[C@@H](CC(C)C)C(=O)N[C@@H](CC(C)C)C(=O)N[C@@H](CCC(N)=O)C(=O)N[C@@H](CCC(=O)O)C(=O)N[C@@H](CC(C)C)C(=O)N[C@@H](CC(C)C)C(=O)N[C@@H](CCC(=O)O)C(=O)N[C@@H](CCSC)C(=O)N[C@@H](C)C(=O)N[C@@H](CCCNC(=N)N)C(=O)N[C@@H](C)C(=O)N[C@@H](CCC(=O)O)C(=O)N[C@@H](CCC(N)=O)C(=O)N[C@@H](CC(C)C)C(=O)N[C@@H](C)C(=O)N[C@@H](CCC(N)=O)C(=O)N[C@@H](CCC(N)=O)C(=O)N[C@@H](C)C(=O)N[C@@H](Cc1c[nH]cn1)C(=O)N[C@@H](CO)C(=O)N[C@@H](CC(N)=O)C(=O)N[C@@H](CCCNC(=N)N)C(=O)N[C@@H](CCCCN)C(=O)N[C@@H](CC(C)C)C(=O)N[C@@H](CCSC)C(=O)N[C@@H](CCC(=O)O)C(=O)N[C@H](C(=O)N[C@H](C(N)=O)[C@@H](C)CC)[C@@H](C)CC)[C@@H](C)CC)C(C)C)C(C)C [compound 1] (H-IVLSLDVPIGLLQELLEMARAEQLAQQAHSNRKLMEII-NH2; N-terminus assumed) | 64 | 100 | – | –
SQEPPISLDLPLYLLREVLEMTKADQLAQQAHSNRKLLDIA-NH2 [compound 101] | 7.35 | 6.95 | – | –
NDDPPISIDLPFHLLRNMIEMARIENEREQAGLNAKYLAEV-NH2 [compound 262] | 100 | 92.2 | – | –
NDDPPISIDLPFYLLRNMIEMARIENEREQAGLNAKYLAEV-NH2 [compound 261] | 100 | 95.3 | – | –
SQEPPISLDLPFQLLREVLEMTKADQLAQQAHSNRKLLDIA-NH2 [compound 91] | 4 | 7.1 | – | –
CC[C@H](C)[C@H](N)C(=O)N[C@H](C(=O)N[C@@H](CC(C)C)C(=O)N[C@@H](CO)C(=O)N[C@@H](CC(C)C)C(=O)N[C@@H](CC(=O)O)C(=O)N[C@H](C(=O)N1CCC[C@H]1C(=O)N[C@H](C(=O)NCC(=O)N[C@@H](CC(C)C)C(=O)N[C@@H](CC(C)C)C(=O)N[C@@H](CCC(N)=O)C(=O)N[C@H](C(=O)N[C@@H](CC(C)C)C(=O)N[C@@H](CC(C)C)C(=O)N[C@@H](CCC(=O)O)C(=O)N[C@@H](CC(C)C)C(=O)N[C@@H](C)C(=O)N[C@@H](CCCNC(=N)N)C(=O)N[C@H](C(=O)N[C@@H](CCC(N)=O)C(=O)N[C@@H](CO)C(=O)N[C@@H](CCC(N)=O)C(=O)N[C@@H](CCCNC(=N)N)C(=O)N[C@@H](CCC(=O)O)C(=O)N[C@@H](CCCNC(=N)N)C(=O)N[C@@H](C)C(=O)N[C@@H](CCC(=O)O)C(=O)N[C@@H](CCC(N)=O)C(=O)N[C@@H](CC(N)=O)C(=O)N[C@@H](CCCNC(=N)N)C(=O)N[C@H](C(=O)N[C@H](C(=O)N[C@@H](Cc1ccccc1)C(=O)N[C@@H](CC(=O)O)C(=O)N[C@@H](CO)C(=O)N[C@H](C(N)=O)C(C)C)[C@@H](C)CC)[C@@H](C)CC)[C@@H](C)O)[C@@H](C)O)[C@@H](C)CC)C(C)C)C(C)C [compound 160] (H-IVLSLDVPIGLLQTLLELARTQSQRERAEQNRIIFDSV-NH2; N-terminus assumed) | 10 | 87 | – | –
CC[C@H](C)[C@H](N)C(=O)N[C@H](C(=O)N[C@@H](CC(C)C)C(=O)N[C@@H](CO)C(=O)N[C@@H](CC(C)C)C(=O)N[C@@H](CC(=O)O)C(=O)N[C@H](C(=O)N1CCC[C@H]1C(=O)N[C@H](C(=O)NCC(=O)N[C@@H](CC(C)C)C(=O)N[C@@H](CC(C)C)C(=O)N[C@@H](CCC(N)=O)C(=O)N[C@H](C(=O)N[C@@H](CC(C)C)C(=O)N[C@@H](CC(C)C)C(=O)N[C@@H](CCC(=O)O)C(=O)N[C@@H](CCC(N)=O)C(=O)N[C@@H](C)C(=O)N[C@@H](CCCNC(=N)N)C(=O)N[C@@H](Cc1c[nH]cn1)C(=O)N[C@@H](C)C(=O)N[C@@H](Cc1c[nH]cn1)C(=O)N[C@@H](C)C(=O)N[C@@H](Cc1c[nH]cn1)C(=O)N[C@@H](C)C(=O)N[C@@H](Cc1c[nH]cn1)C(=O)N[C@@H](C)C(=O)N[C@@H](Cc1c[nH]cn1)C(=O)N[C@@H](C)C(=O)N[C@@H](CCC(N)=O)C(=O)N[C@@H](C)C(=O)N[C@@H](Cc1c[nH]cn1)C(=O)N[C@H](C(=O)N[C@@H](CC(C)C)C(=O)N[C@@H](C)C(=O)N[C@@H](Cc1c[nH]cn1)C(=O)N[C@H](C(N)=O)C(C)C)[C@@H](C)CC)[C@@H](C)CC)[C@@H](C)CC)C(C)C)C(C)C [compound 369] (H-IVLSLDVPIGLLQILLEQARHAHAHAHAHAQAHILAHV-NH2) | 4 | 18 | – | –
SEEPPISLDLTFHLLREVLEMARAEQLAQQAHTNARILARV-NH2 [compound 161] | 77 | 88 | – | –
CC[C@H](C)[C@H](N)C(=O)N[C@H](C(=O)N[C@@H](CC(C)C)C(=O)N[C@@H](CO)C(=O)N[C@@H](CC(C)C)C(=O)N[C@@H](CCC(=O)O)C(=O)N[C@H](C(=O)N1CCC[C@H]1C(=O)N[C@H](C(=O)NCC(=O)N[C@@H](CC(C)C)C(=O)N[C@@H](CC(C)C)C(=O)N[C@@H](CCC(N)=O)C(=O)N[C@H](C(=O)N[C@@H](CC(C)C)C(=O)N[C@@H](CC(C)C)C(=O)N[C@@H](CCC(=O)O)C(=O)N[C@@H](CCC(N)=O)C(=O)N[C@@H](C)C(=O)N[C@@H](CCCNC(=N)N)C(=O)N[C@@H](C)C(=O)N[C@@H](CCCNC(=N)N)C(=O)N[C@@H](C)C(=O)N[C@@H](C)C(=O)N[C@@H](CCCNC(=N)N)C(=O)N[C@@H](CCC(=O)O)C(=O)N[C@@H](CCC(N)=O)C(=O)N[C@@H](C)C(=O)N[C@H](C(=O)N[C@H](C(=O)N[C@@H](CC(N)=O)C(=O)N[C@@H](C)C(=O)N[C@@H](CCCNC(=N)N)C(=O)N[C@H](C(=O)N[C@@H](CC(C)C)C(=O)N[C@@H](C)C(=O)N[C@@H](CCCNC(=N)N)C(=O)N[C@H](C(N)=O)C(C)C)[C@@H](C)CC)[C@@H](C)O)[C@@H](C)O)[C@@H](C)CC)[C@@H](C)CC)C(C)C)C(C)C [compound 120] (H-IVLSLEVPIGLLQILLEQARARAAREQATTNARILARV-NH2; N-terminus assumed) | 7 | 100 | ≥ 100 | 69.9
CC[C@H](C)[C@H](N)C(=O)N[C@H](C(=O)N[C@@H](CC(C)C)C(=O)N[C@@H](CO)C(=O)N[C@@H](CC(C)C)C(=O)N[C@@H](CC(=O)O)C(=O)N[C@H](C(=O)N1CCC[C@H]1C(=O)N[C@H](C(=O)NCC(=O)N[C@@H](CC(C)C)C(=O)N[C@@H](CC(C)C)C(=O)N[C@@H](CCC(N)=O)C(=O)N[C@H](C(=O)N[C@@H](CC(C)C)C(=O)N[C@@H](CC(C)C)C(=O)N[C@@H](CCC(=O)O)C(=O)N[C@@H](CCCCN)C(=O)N[C@@H](C)C(=O)N[C@@H](C)C(=O)N[C@@H](C)C(=O)N[C@@H](CCC(=O)O)C(=O)N[C@@H](C)C(=O)N[C@@H](CCC(=O)O)C(=O)N[C@@H](C)C(=O)N[C@@H](C)C(=O)N[C@@H](C)C(=O)N[C@@H](CCCCN)C(=O)N[C@@H](C)C(=O)N[C@@H](C)C(=O)N[C@@H](CCC(N)=O)C(=O)N[C@@H](CCC(=O)O)C(=O)N[C@@H](CCC(N)=O)C(=O)N[C@H](C(=O)N[C@@H](CC(C)C)C(=O)N[C@@H](C)C(=O)N[C@@H](Cc1c[nH]cn1)C(=O)N[C@H](C(N)=O)C(C)C)[C@@H](C)CC)[C@@H](C)CC)[C@@H](C)CC)C(C)C)C(C)C [compound 366] (H-IVLSLDVPIGLLQILLEKAAAEAEAAAKAAQEQILAHV-NH2) | 9 | 46 | – | –
CC[C@H](C)[C@H](N)C(=O)N[C@H](C(=O)N[C@@H](CC(C)C)C(=O)N[C@@H](CO)C(=O)N[C@@H](CC(C)C)C(=O)N[C@@H](CC(=O)O)C(=O)N[C@H](C(=O)N1CCC[C@H]1C(=O)N[C@H](C(=O)NCC(=O)N[C@@H](CC(C)C)C(=O)N[C@@H](CC(C)C)C(=O)N[C@@H](CCC(N)=O)C(=O)N[C@H](C(=O)N[C@@H](CC(C)C)C(=O)N[C@@H](CC(C)C)C(=O)N[C@@H](CCC(=O)O)C(=O)N[C@@H](CCC(N)=O)C(=O)N[C@@H](CCCNC(=N)N)C(=O)N[C@@H](CCCNC(=N)N)C(=O)N[C@@H](C)C(=O)N[C@@H](C)C(=O)N[C@@H](CCCNC(=N)N)C(=O)N[C@@H](CCC(=O)O)C(=O)N[C@@H](CCC(N)=O)C(=O)N[C@@H](C)C(=O)N[C@H](C(=O)N[C@H](C(=O)N[C@@H](CC(N)=O)C(=O)N[C@@H](C)C(=O)N[C@@H](CCCNC(=N)N)C(=O)N[C@H](C(=O)N[C@@H](CC(C)C)C(=O)N[C@@H](C)C(=O)N[C@@H](CCCNC(=N)N)C(=O)N[C@H](C(N)=O)C(C)C)[C@@H](C)CC)[C@@H](C)O)[C@@H](C)O)[C@@H](C)CC)[C@@H](C)CC)C(C)C)C(C)C [compound 133] (H-IVLSLDVPIGLLQILLEQRRAAREQATTNARILARV-NH2; N-terminus assumed) | 4 | 88 | > 100 | 12.2
